Measured values: patent publication US20250276964A1 (Novartis AG, priority 2021, published 2025)

Biological target: T1, WIZ (Homo sapiens, UniProt O95785+Q96SW2)
T1 construct: expressed in transfected cells
Experiment: Quantification of WIZ protein levels in HiBit tag fusion protein assay (WIZ HiBit assay in 293T cells)
Format: cell-based
Conditions: for DC50: WIZ HiBit assay in 293T cells, 10-point, 5-fold dilution, highest concentration 25 μM, about 18 hours, read-out: WIZ AC50; for Dmax at 25 µM / remaining activity at 25 µM: HEK-293T; for Dmax at 25 µM: read-out: % degradation of WIZ (100-Amax); for remaining activity at 25 µM: read-out: WIZ Amax
Experimental: The HiBit system from Promega was used to develop high-throughput and quantitative assays to measure changes in WIZ protein levels in response to compounds. The HiBit tag was derived from a split Nanoluciferase and has the following protein sequence: […] (SEQ ID NO: 1). The complementary fragment of Nanoluciferase (known as LgBit, from Promega), was added to the HiBit tag to form an active Nanoluciferase enzyme whose activity can be precisely measured. In this way, the levels of a fusion protein with the HiBit tag can be quantified in cell lysates.
Lentiviral vectors, based on the Invitrogen™ pLenti6.2/V5 DEST backbone were constructed that places the HiBit tag upstream of WIZ and expressed the fusion protein from an HSVTK promotor.
To ensure moderate and consistent expression of the HiBit-WIZ fusion protein across all cells in the population, stable cell lines were constructed from cells harboring a single copy of the construct. Lentivirus packaged with the constructs were made using the ViraPower™kit from Invitrogen™. 293T cells from ATCC (Catalog number: CRL-3216), were infected with the virus at low multiplicity of infection and selected by 5 μg/mL blasticidin in culture media for 2 weeks.
The levels of HiBit-WIZ tagged fusion proteins in compound-treated cell lines were measured as follows:
On day 1, cells were diluted to 1.0×10^6 cells/ml in normal growth medium. 20 μL of cell suspension were plated in each well of a solid white 384-well plate. Plates were incubated overnight in a 37° C. and 5% CO2 humidified tissue culture incubator.
On day 2, serial dilutions of compounds were made in 384-well plates. Compound plates were set up with DMSO in columns 1, 2, 23, 24, and 10-point compound dilution series in column 3-12 and column 13-22. 10 mM stock solution of compound were placed into column 3 or 13 and a 1:5 serial dilution was carried out until there was a 10-point dilution series per compound. 50 nL of diluted compounds were transferred into the plated cells by Echo® (Labcyte) acoustic transfer. The highest concentration of compound was 25 μM. Plates were incubated overnight (about 18 hours) in a 37° C. and 5% CO2 humidified tissue culture incubator.
On day 3, plates were removed from the incubator and allowed to equilibrate at room temperature for 60 minutes. HiBit substrate (Nano-Glo® HiBit Lytic Detection System, Promega Catalogue number: N3050) was added as described by the manufacturers protocols. Plates were incubated at room temperature for 30 minutes and luminescence was read using an EnVision® reader (PerkinElmer®). Data was analyzed and visualized using the Spotfire® software package.
WIZ Amax reflects the DMSO-normalized, curve-fitted percentage of WIZ-HiBit remaining at 25 uM. It was calculated by normalizing DMSO controls to 100%, parametric curve fitting of the dose response data (10-point, 5-fold), followed by calculation of response at 25 uM using the fitted equation (nd=not determined).

[1] = DMSO-normalized, curve-fitted percentage of WIZ-HiBit remaining at 25 uM

T1 sequence (O95785 whole entry): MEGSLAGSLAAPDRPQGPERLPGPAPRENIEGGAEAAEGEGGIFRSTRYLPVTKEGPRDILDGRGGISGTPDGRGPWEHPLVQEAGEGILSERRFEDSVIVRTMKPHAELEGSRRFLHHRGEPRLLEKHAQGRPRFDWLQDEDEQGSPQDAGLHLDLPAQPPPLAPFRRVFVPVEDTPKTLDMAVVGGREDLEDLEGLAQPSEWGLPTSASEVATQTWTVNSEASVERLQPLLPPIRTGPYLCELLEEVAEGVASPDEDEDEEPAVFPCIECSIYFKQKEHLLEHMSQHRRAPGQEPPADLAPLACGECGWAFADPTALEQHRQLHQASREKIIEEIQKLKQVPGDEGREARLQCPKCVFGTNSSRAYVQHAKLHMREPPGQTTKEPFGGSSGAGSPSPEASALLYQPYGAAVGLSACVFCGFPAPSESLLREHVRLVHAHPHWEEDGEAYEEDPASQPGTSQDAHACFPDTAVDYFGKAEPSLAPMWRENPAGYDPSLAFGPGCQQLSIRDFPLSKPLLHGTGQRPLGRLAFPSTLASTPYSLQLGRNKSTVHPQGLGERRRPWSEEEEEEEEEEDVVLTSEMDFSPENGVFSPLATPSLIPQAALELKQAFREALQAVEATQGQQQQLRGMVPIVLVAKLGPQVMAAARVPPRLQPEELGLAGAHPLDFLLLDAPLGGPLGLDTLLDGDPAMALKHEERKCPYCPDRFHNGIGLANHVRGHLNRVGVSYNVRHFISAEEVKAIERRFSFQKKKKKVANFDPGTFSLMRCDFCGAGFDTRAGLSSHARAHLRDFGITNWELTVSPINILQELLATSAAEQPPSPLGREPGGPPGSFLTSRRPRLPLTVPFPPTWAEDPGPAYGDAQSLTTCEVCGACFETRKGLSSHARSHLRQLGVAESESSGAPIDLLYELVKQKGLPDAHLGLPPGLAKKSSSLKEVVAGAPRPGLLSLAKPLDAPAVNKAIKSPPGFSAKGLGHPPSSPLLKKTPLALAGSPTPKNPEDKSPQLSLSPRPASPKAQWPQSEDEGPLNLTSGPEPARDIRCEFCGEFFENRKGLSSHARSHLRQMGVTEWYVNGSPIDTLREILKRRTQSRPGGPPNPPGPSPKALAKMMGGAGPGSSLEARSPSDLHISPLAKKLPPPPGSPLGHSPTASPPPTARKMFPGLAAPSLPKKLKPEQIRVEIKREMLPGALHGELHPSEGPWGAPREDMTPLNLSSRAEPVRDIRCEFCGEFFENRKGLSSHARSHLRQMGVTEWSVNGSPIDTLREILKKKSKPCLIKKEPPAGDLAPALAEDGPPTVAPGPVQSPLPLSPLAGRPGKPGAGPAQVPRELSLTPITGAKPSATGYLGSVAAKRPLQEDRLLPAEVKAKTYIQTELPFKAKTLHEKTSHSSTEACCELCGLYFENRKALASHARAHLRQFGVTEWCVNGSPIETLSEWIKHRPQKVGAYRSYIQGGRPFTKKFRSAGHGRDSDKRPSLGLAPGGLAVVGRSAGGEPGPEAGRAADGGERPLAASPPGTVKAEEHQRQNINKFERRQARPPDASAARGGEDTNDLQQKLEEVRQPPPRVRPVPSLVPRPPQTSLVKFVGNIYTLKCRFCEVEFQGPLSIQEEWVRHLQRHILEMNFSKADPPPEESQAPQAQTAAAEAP
T1 sequence (Q96SW2 whole entry): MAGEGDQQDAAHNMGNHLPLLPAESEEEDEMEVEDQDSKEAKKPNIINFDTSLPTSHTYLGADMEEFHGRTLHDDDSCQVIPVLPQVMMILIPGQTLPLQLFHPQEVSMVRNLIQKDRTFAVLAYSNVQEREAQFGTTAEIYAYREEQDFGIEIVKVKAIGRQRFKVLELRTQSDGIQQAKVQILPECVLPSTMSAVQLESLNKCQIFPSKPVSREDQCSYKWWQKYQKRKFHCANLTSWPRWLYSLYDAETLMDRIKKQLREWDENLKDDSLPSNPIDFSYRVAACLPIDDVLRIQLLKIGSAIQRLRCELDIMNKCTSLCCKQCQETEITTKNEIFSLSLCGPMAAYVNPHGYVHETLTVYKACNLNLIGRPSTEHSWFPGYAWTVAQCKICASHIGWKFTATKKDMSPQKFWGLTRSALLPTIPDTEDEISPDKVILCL
T1 sequence (Q16531 whole entry partner): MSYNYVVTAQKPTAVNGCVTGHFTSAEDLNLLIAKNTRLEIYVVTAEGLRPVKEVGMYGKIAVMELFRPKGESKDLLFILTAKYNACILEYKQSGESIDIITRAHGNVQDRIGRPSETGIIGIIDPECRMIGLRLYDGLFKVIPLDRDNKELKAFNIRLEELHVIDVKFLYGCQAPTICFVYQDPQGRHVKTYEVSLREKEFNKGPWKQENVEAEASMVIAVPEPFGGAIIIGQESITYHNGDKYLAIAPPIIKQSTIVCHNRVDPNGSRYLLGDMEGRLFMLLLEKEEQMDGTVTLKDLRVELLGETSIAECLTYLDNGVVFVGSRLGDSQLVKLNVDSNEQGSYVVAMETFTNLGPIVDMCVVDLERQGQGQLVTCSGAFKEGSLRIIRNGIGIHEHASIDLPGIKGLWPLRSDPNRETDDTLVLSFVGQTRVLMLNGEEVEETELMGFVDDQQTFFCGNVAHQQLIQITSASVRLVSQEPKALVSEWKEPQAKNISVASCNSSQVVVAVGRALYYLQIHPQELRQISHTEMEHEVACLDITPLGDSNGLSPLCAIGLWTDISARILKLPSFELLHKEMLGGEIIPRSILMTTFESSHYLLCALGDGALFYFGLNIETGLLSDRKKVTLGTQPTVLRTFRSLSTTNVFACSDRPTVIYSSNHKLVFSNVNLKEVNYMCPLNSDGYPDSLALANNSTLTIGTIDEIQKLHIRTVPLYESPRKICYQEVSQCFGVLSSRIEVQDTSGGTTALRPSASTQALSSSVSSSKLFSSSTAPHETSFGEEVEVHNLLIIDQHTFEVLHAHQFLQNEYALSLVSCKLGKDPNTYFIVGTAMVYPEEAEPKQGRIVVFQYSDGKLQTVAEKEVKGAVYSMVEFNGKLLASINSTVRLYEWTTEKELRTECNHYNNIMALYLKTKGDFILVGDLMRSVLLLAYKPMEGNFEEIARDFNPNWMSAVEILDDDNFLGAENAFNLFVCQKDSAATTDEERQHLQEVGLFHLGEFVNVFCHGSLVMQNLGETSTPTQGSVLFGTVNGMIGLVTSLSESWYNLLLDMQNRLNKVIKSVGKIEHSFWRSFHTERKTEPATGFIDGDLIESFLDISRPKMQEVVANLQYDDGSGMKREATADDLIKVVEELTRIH

Row | SMILES | % degradation of WIZ (100-Amax) (100 minus Amax at 25 uM) | WIZ Amax [1] | DC50 | Dmax at 25 µM (100 minus Amax at 25 uM) | remaining activity at 25 µM [1]
1 | CN1[C@@H]2CC[C@H]1CC(Cc1ccc3onc(N4CCC(=O)NC4=O)c3c1)C2 (stereo partly drawn) [Example 59, 1-(5-(((1R,5S)-8-methyl-8-azabicyclo[3.2.1]octan-3-yl)methyl)benzo[d]isoxazol-3-yl)dihydropyrimidine-2,4(1H,3H)-dione] | 84% | 16% | 25 nM |  | 
2 | C[C@@H]1CN(C2CCC2)CCN1Cc1ccc2onc(N3CCC(=O)NC3=O)c2c1 [Example 77, (R)-1-(5-((4-cyclobutyl-2-methylpiperazin-1-yl)methyl)benzo[d]isoxazol-3-yl)dihydropyrimidine-2,4(1H,3H)-dione] |  |  | 22 nM | 82% | 18%
3 | O=C1CCN(c2noc3ccc(CN4CCN5CCOC[C@@H]5C4)cc23)C(=O)N1 [Example 111, (S)-1-(5-((hexahydropyrazino[2,1-c][1,4]oxazin-8(1H)-yl)methyl)benzo[d]isoxazol-3-yl)dihydropyrimidine-2,4(1H,3H)-dione] |  |  | 61 nM | 85% | 15%
4 | C[C@H]1CN(Cc2ccc3onc(N4CCC(=O)NC4=O)c3c2)[C@@H](C)CN1C [Example 106, 1-(5-(((2S,5S)-2,4,5-trimethylpiperazin-1-yl)methyl)benzo[d]isoxazol-3-yl)dihydropyrimidine-2,4(1H,3H)-dione] |  |  | 109 nM | 86% | 14%
5 | CC(C)S(=O)(=O)N1CCC(Cc2ccc3onc(N4CCC(=O)NC4=O)c3c2)CC1 [Example 14, 1-(5-((1-(isopropylsulfonyl)piperidin-4-yl)methyl)benzo[d]isoxazol-3-yl)dihydropyrimidine-2,4(1H,3H)-dione] |  |  | 14 nM | 90% | 10%
6 | CC(C)N1CCN(Cc2ccc3onc(N4CCC(=O)NC4=O)c3c2)[C@H](C)C1 [Example 69, (R)-1-(5-((4-isopropyl-2-methylpiperazin-1-yl)methyl)benzo[d]isoxazol-3-yl)dihydropyrimidine-2,4(1H,3H)-dione] |  |  | 45 nM | 83% | 17%
7 | O=C1CCN(c2noc3ccc(CC4CCN(Cc5cccc(F)c5)CC4)cc23)C(=O)N1 [Example 7, 1-(5-((1-(3-fluorobenzyl)piperidin-4-yl)methyl)benzo[d]isoxazol-3-yl)dihydropyrimidine-2,4(1H,3H)-dione] |  |  | 18 nM | 91% | 9%
8 | CC(C)(C)OC(=O)N1[C@@H]2CC[C@H]1CN(Cc1ccc3onc(N4CCC(=O)NC4=O)c3c1)C2 [Example 99, tert-butyl (1R,5S)-3-((3-(2,4-dioxotetrahydropyrimidin-1(2H)-yl)benzo[d]isoxazol-5-yl)methyl)-3,8-diazabicyclo[3.2.1]octane-8-carboxylate] |  |  | 450 nM | 74% | 26%
9 | C[C@@H]1CN(C(=O)NC2CCCC2)CCN1Cc1ccc2onc(N3CCC(=O)NC3=O)c2c1 [Example 76, (R)—N-cyclopentyl-4-((3-(2,4-dioxotetrahydropyrimidin-1(2H)-yl)benzo[d]isoxazol-5-yl)methyl)-3-methylpiperazine-1-carboxamide] |  |  | 115 nM | 78% | 22%
10 | CN1[C@@H]2CC[C@H]1CN(Cc1ccc3onc(N4CCC(=O)NC4=O)c3c1)C2 [Example 101, 1-(5-(((1R,5S)-8-methyl-3,8-diazabicyclo[3.2.1]octan-3-yl)methyl)benzo[d]isoxazol-3-yl)dihydropyrimidine-2,4(1H,3H)-dione] |  |  | 13 nM | 78% | 22%
11 | O=C1CCN(c2noc3ccc(CC4CCCNCC4)cc23)C(=O)N1 (stereo not drawn) [Example 52, 1-(5-(azepan-4-ylmethyl)benzo[d]isoxazol-3-yl)dihydropyrimidine-2,4(1H,3H)-dione] |  |  | 57 nM | 86% | 14%
12 | O=C1CCN(c2noc3ccc(CN4CCN(C5CC5)CC4)cc23)C(=O)N1 [Example 119, 1-(5-((4-cyclopropylpiperazin-1-yl)methyl)benzo[d]isoxazol-3-yl)dihydropyrimidine-2,4(1H,3H)-dione] |  |  | 189 nM | 86% | 14%
13 | CC(C)(C)OC(=O)N1CCN(Cc2ccc3onc(N4CCC(=O)NC4=O)c3c2)CC1(C)C [Example 91, tert-butyl 4-((3-(2,4-dioxotetrahydropyrimidin-1(2H)-yl)benzo[d]isoxazol-5-yl)methyl)-2,2-dimethylpiperazine-1-carboxylate] |  |  | 298 nM | 81% | 19%
14 | COC[C@H]1CN(Cc2ccc3onc(N4CCC(=O)NC4=O)c3c2)CCN1C [Example 117, (R)-1-(5-((3-(methoxymethyl)-4-methylpiperazin-1-yl)methyl)benzo[d]isoxazol-3-yl)dihydropyrimidine-2,4(1H,3H)-dione] |  |  | 578 nM | 87% | 13%
15 | CC(C)CN1CCCC(Cc2ccc3onc(N4CCC(=O)NC4=O)c3c2)C1 (stereo not drawn) [Example 46, 1-(5-((1-isobutylpiperidin-3-yl)methyl)benzo[d]isoxazol-3-yl)dihydropyrimidine-2,4(1H,3H)-dione] |  |  | 197 nM | 77% | 23%
16 | O=C1CCN(c2noc3ccc(CC4CCN(CC5CCC5)CC4)cc23)C(=O)N1 [Example 3, 1-(5-((1-(cyclobutylmethyl)piperidin-4-yl)methyl)benzo[d]isoxazol-3-yl)dihydropyrimidine-2,4(1H,3H)-dione] |  |  | 10 nM | 92% | 8%
17 | CCN1CCN(Cc2ccc3onc(N4CCC(=O)NC4=O)c3c2)[C@H](C)C1 [Example 66, (R)-1-(5-((4-ethyl-2-methylpiperazin-1-yl)methyl)benzo[d]isoxazol-3-yl)dihydropyrimidine-2,4(1H,3H)-dione] |  |  | 45 nM | 86% | 14%
18 | C[C@@H]1CN(S(C)(=O)=O)CCN1Cc1ccc2onc(N3CCC(=O)NC3=O)c2c1 [Example 71, (R)-1-(5-((2-methyl-4-(methylsulfonyl)piperazin-1-yl)methyl)benzo[d]isoxazol-3-yl)dihydropyrimidine-2,4(1H,3H)-dione] |  |  | 34 nM | 82% | 18%
19 | CN1[C@@H]2CC[C@H]1CC(Cc1ccc3onc(N4CCC(=O)NC4=O)c3c1)C2 (stereo partly drawn) [Example 58, 1-(5-(((1R,5S)-8-methyl-8-azabicyclo[3.2.1]octan-3-yl)methyl)benzo[d]isoxazol-3-yl)dihydropyrimidine-2,4(1H,3H)-dione] |  |  | 20 nM | 89% | 11%
20 | C[C@H]1CN(CC2CCOCC2)[C@@H](C)CN1Cc1ccc2onc(N3CCC(=O)NC3=O)c2c1 [Example 107, 1-(5-(((2S,5S)-2,5-dimethyl-4-((tetrahydro-2H-pyran-4-yl)methyl)piperazin-1-yl)methyl)benzo[d]isoxazol-3-yl)dihydropyrimidine-2,4(1H,3H)-dione] |  |  | 56 nM | 86% | 14%
